The values below come from article PMC5442318, “Hundreds of dual-stage antimalarial molecules discovered by a functional gametocyte screen” (Nature Communications, 2017).

Molecules are shown by their SMILES. Read-outs that look alike come from different tables or passages of the source.

Series [1] deals with P. falciparum stages IV–V gametocytes. The series is described as follows: Gametocytocidal ATP-depletion assay (gametocyte ATP bioluminescence). It counts as cell-based, Plasmodium falciparum. In a few lines: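 Purified stage IV–V gametocytes (12,500/well) incubated with compound for 48 h at 37 °C under 3% O2/5% CO2. ATP measured by BacTiter-Glo luminescence as a viability surrogate; hits tested at 2 μM single concentration.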

The test system of series [2] is P. falciparum asexual blood stages. Particulars: read-out: Pf Asexual blood stages XC50, cited from earlier work.
For series [3], the system named is P. falciparum stage V female gametocytes. The series is described as follows: P. falciparum female gametocyte activation assay (Pf FGAA), 24 h or 48 h preincubation, Pfs25 expression readout. It counts as cell-based, Plasmodium falciparum NF54. The note with it: mean, read-out: Gametocytes mean Pf FGAA IC50. In a few lines: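 Purified stage V gametocytes from P. falciparum NF54 gametocyte cultures were exposed to compounds for 24 h or 48 h at 37 °C under 3% O2/5% CO2, then activated by temperature drop plus xanthurenic acid. Activated females were stained with Cy3-anti-Pfs25 (0.5 μg ml^−1) for 24 h at 26 °C and counted by high-content imaging; pIC50 by nonlinear regression.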

A further series relates to HepG2 cells. In words: HepG2 cytotoxicity assay. It counts as cell-based. The note with it: mean. The method in brief:
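Steps: equilibrate plates and detection reagent at room temperature (30 min); dispense CellTiter-Glo; allow 10 min at room temperature; record luminescence.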

Where [4] appears, read: TCAMS asexual blood stage data, ref 1 (Gamo, F. J. et al., Nature 465, 305-310, 2010).
[5] abbreviates: P. falciparum female gametocytes.
[6] abbreviates: TCAMS data, ref 1 (Gamo et al., 2010).

Turning to `CCc1c(CCNCCCCCNCCc2ccc(OC)c(OC)c2CC)ccc(OC)c1OC.Cl` [TCMDC-132064], in series [1], the “Gametocytes mean ATP inhibition at 2µM” value is 27.40%. The results for the IC50 in series [2] (setting [4]) and in series [3] (setting [5]) were 1110 nM and 2050 nM, respectively. Moreover, the “HepG2 cells mean TOX50” value with HepG2 cells (HepG2 cells) is 4.68 µM.
Turning to `NCCCNc1nc(Nc2ccc(C(F)(F)F)cc2F)c2c(=O)[nH]ccc2n1.O=C(O)C(F)(F)F` [TCMDC-135056], in series [1], the “Gametocytes mean ATP inhibition at 2µM” value was -14.04%. Further, the figures for the IC50 in series [2] (setting [4]) and in series [3] (setting [5]) were 1050 nM and 1600 nM, respectively. In the series on HepG2 cells (HepG2 cells), the “HepG2 cells mean TOX50” value came to 9.30 µM.
For `Nc1nc(N)c2c(ccc3[nH]c(-c4ccccc4Cl)nc32)n1` [TCMDC-137840], the “Gametocytes mean ATP inhibition at 2µM (%)” value in series [1] is 22.85%. For the same compound, the IC50 is 230 nM in series [2] (setting [6]) and 4420 nM in series [3]. The “HepG2 cells mean TOX50” value in the series with HepG2 cells is recorded as 2.32 µM.
Take `CC(C)NCc1ccc(OCc2cccc(COc3ccc(CNC(C)C)cc3I)c2)c(I)c1.Cl` [TCMDC-137259]: in series [1], the “Gametocytes mean ATP inhibition at 2µM (%)” value is 81.19%. The results for the IC50 in series [2] (setting [6]) and in series [3] were 90 nM and 1320 nM, respectively. Further, in the series on HepG2 cells, the “HepG2 cells mean TOX50” value came out at 1.64 µM.
For `Cc1cc2nc(N=C3NC4(c5ccccn5)NC(=Nc5nc6cc(C)c(C)cc6[nH]5)NC4(c4ccccn4)N3)[nH]c2cc1C.O=C(O)C(F)(F)F` (stereo not drawn) [TCMDC-139105], in series [1], the “Gametocytes mean ATP inhibition at 2µM (%)” value is recorded as 33.60%. For the same compound, the IC50 was 680 nM in series [2] (setting [6]) and 5340 nM in series [3]. In addition, the “HepG2 cells mean TOX50” value in the series with HepG2 cells was determined as 35.91 µM.
`Cc1cc(OCCN2CCCCC2)ccc1NC(=O)c1cccc2c(=O)n(Cc3ccc(Cl)cc3)cnc12` [TCMDC-136727]: in series [1], the “Gametocytes mean ATP inhibition at 2µM (%)” value is listed as 13.25%. For the same compound, the figures for the IC50 in series [2] (setting [6]) and in series [3] were 1050 nM and 1400 nM, respectively. The “HepG2 cells mean TOX50” value with HepG2 cells is 4.17 µM.
Take `O=C(NCCCCN1CCC(c2ccc3c(c2OCCN2CCCC2)CCCC3)CC1)c1ccc(-c2ccc(C(F)(F)F)cc2)cc1` [TCMDC-138768]: the “Gametocytes mean ATP inhibition at 2µM (%)” value in series [1] was -10.59%. Also, the IC50 was 450 nM in series [2] (setting [6]) and 1980 nM in series [3]. Moreover, the “HepG2 cells mean TOX50” value in the series on HepG2 cells is listed as 5.39 µM.
For `CCOc1ccc2nc3cc(NC(=O)c4ccco4)ccc3c(N)c2c1` [TCMDC-125004], the “Gametocytes mean ATP inhibition at 2µM” value in series [1] was 91.77%. The values for the IC50 in series [2] (setting [4]) and in series [3] (setting [5]) were 800 nM and 4550 nM, respectively. In the series with HepG2 cells (HepG2 cells), the “HepG2 cells mean TOX50” value was found to be 25.15 µM.
With `FC(F)(F)c1ccc2[nH]c(-c3cccc(-c4cccc(CNCCN5CCNCC5)c4)c3)nc2c1.O=C(O)C(F)(F)F` [TCMDC-132871], the “Gametocytes mean ATP inhibition at 2µM” value in series [1] is given as 0.88%. Also, the IC50 in series [2] (setting [4]) was 940 nM; in series [3] (setting [5]) it was 1220 nM. Also, the “HepG2 cells mean TOX50” value in the series with HepG2 cells (HepG2 cells) is reported as 6.61 µM.
For the compound `COc1cc2c(OC)cccc2cc1CNCCCCCCNCc1cc2cccc(OC)c2cc1OC.CS(=O)(=O)O` [TCMDC-137945], in series [1], the “Gametocytes mean ATP inhibition at 2µM (%)” value is recorded as -15.51%. In addition, the IC50 in series [2] (setting [6]) was 820 nM; in series [3] it was 1820 nM. Also, in the series on HepG2 cells, the “HepG2 cells mean TOX50” value is listed as 4.90 µM.
Regarding `Nc1ccc2[nH]cc(C3CCN(CC4CCN(C(=O)/C=C/c5ccc(Cl)c(Cl)c5)CC4)CC3)c2n1` [TCMDC-140061], the “Gametocytes mean ATP inhibition at 2µM (%)” value in series [1] was -11.61%. In addition, the IC50 is 700 nM in series [2] (setting [6]) and 1770 nM in series [3]. The “HepG2 cells mean TOX50” value in the series with HepG2 cells is 5.89 µM.
On to `O=C(O)C(F)(F)F.O=S(=O)(NCCN1CCCC1)c1cccc(-c2ccc(CNC3Cc4ccccc4C3)cc2)c1` [TCMDC-132241], for which the “Gametocytes mean ATP inhibition at 2µM” value in series [1] is listed as 3.92%. Also, the values for the IC50 in series [2] (setting [4]) and in series [3] (setting [5]) were 660 nM and 3100 nM, respectively. The “HepG2 cells mean TOX50” value with HepG2 cells (HepG2 cells) came out at 6.46 µM.
For the compound `COc1c(CNCCCCCCNCc2cc(Cl)c3ccccc3c2OC)cc(Cl)c2ccccc12.CS(=O)(=O)O` [TCMDC-137958], in series [1], the “Gametocytes mean ATP inhibition at 2µM (%)” value is reported as -6.18%. In addition, the IC50 in series [2] (setting [6]) was 940 nM; in series [3], 1180 nM. Also, the “HepG2 cells mean TOX50” value in the series on HepG2 cells was determined as 4.62 µM.
Consider `COc1ccc(N2CCN(CCCCNCc3ccc(NC(=O)c4cc(Cl)cc(Cl)c4)cc3)CC2)c(OC)c1` [TCMDC-138226], for which, in series [1], the “Gametocytes mean ATP inhibition at 2µM (%)” value was found to be 17.06%. Besides, the figures for the IC50 in series [2] (setting [6]) and in series [3] were 250 nM and 3110 nM, respectively. In the series with HepG2 cells, the “HepG2 cells mean TOX50” value was 4.42 µM.
Consider `Nc1c(Cl)cc(C(O)CNCCCCCOCCCc2ccc(O)c3ncccc23)cc1Cl.O=C(O)/C=C/C(=O)O` (stereo not drawn) [TCMDC-132088], for which the “Gametocytes mean ATP inhibition at 2µM” value in series [1] turned out to be 76.89%. Moreover, the IC50 in series [2] (setting [4]) was 990 nM; in series [3] (setting [5]) it was 2100 nM. Besides, the “HepG2 cells mean TOX50” value in the series with HepG2 cells (HepG2 cells) is listed as 7.76 µM.
On to `COc1ccc2c(c1CCNCCCCNCCc1c(OC)ccc3c1CCCC3)CCCC2.CS(=O)(=O)O` [TCMDC-137324], for which the “Gametocytes mean ATP inhibition at 2µM (%)” value in series [1] is reported as 95.49%. Also, the IC50 is 380 nM in series [2] (setting [6]) and 640 nM in series [3]. Moreover, the “HepG2 cells mean TOX50” value with HepG2 cells is given as 1.68 µM.
Turning to `COc1cc2nc(N3CCC(CNC(=O)c4ccc(-c5ccc(Cl)cc5)cc4)CC3)nc(N)c2cc1OC` [TCMDC-138718], in series [1], the “Gametocytes mean ATP inhibition at 2µM (%)” value was found to be 12.29%. The IC50 is 150 nM in series [2] (setting [6]) and 890 nM in series [3]. In the series with HepG2 cells, the “HepG2 cells mean TOX50” value came out at 4.22 µM.
Consider `CCC(CSC1CCCCC1)N(C)CCN(C)C(CC)CSC1CCCCC1.Cl` (stereo not drawn) [TCMDC-131456], for which the “Gametocytes mean ATP inhibition at 2µM” value in series [1] worked out at 36.19%. For the same compound, the IC50 in series [2] (setting [4]) was 310 nM; in series [3] (setting [5]), 1250 nM. The “HepG2 cells mean TOX50” value in the series with HepG2 cells (HepG2 cells) amounted to 0.0654 µM.
Consider `COc1cc2nc(N3CCC(CNCc4ccc(-c5ccc(C(F)(F)F)cc5)cc4)CC3)nc(N)c2cc1OC` [TCMDC-138757], for which the “Gametocytes mean ATP inhibition at 2µM (%)” value in series [1] worked out at 99.68%. Also, the IC50 was 90 nM in series [2] (setting [6]) and 100 nM in series [3]. Moreover, in the series on HepG2 cells, the “HepG2 cells mean TOX50” value turned out to be 1.43 µM.
Turning to `CCCOc1ccc(CCNCCCCNCCc2ccc(OCCC)c3ccccc23)c2ccccc12.CS(=O)(=O)O` [TCMDC-137952], the “Gametocytes mean ATP inhibition at 2µM (%)” value in series [1] was found to be 94.33%. In addition, the IC50 in series [2] (setting [6]) is 920 nM; in series [3], 610 nM. Also, the “HepG2 cells mean TOX50” value in the series on HepG2 cells came to 2.16 µM.
For the compound `NCc1ccc(CNCc2cccc(-c3ccc(-c4nc5cc(C(F)(F)F)ccc5[nH]4)cc3)c2)cc1.O=C(O)C(F)(F)F` [TCMDC-132811], the “Gametocytes mean ATP inhibition at 2µM” value in series [1] was -6.09%. The IC50 was 260 nM in series [2] (setting [4]) and 830 nM in series [3] (setting [5]). In addition, in the series on HepG2 cells (HepG2 cells), the “HepG2 cells mean TOX50” value amounted to 14.65 µM.
Take `CC(C)(C)c1ccc(CN2CCC(CNC(=O)c3cc(-c4ccccc4F)cs3)C2)cc1.O=C(O)C(F)(F)F` (stereo not drawn) [TCMDC-134443]: the “Gametocytes mean ATP inhibition at 2µM” value in series [1] is listed as -4.04%. Besides, the values for the IC50 in series [2] (setting [4]) and in series [3] (setting [5]) were 560 nM and 830 nM, respectively. For the same compound, the “HepG2 cells mean TOX50” value in the series with HepG2 cells (HepG2 cells) was 9.30 µM.
For the compound `C[C@H](Cc1ccc(Oc2ccc(C[C@@H](C)NC[C@H](O)c3cccc(Cl)c3)cc2)cc1)NC[C@H](O)c1cccc(Cl)c1.Cl` [TCMDC-131560], the “Gametocytes mean ATP inhibition at 2µM” value in series [1] came to 70.55%. Also, the IC50 in series [2] (setting [4]) was 560 nM; in series [3] (setting [5]), 720 nM. Also, the “HepG2 cells mean TOX50” value in the series with HepG2 cells (HepG2 cells) came to 2.04 µM.
Take `OCCN1CCN(c2ccc(Nc3ccnc4cc5ccccc5cc34)cc2)CC1` [TCMDC-123915]: the “Gametocytes mean ATP inhibition at 2µM” value in series [1] stood at 2.56%. For the same compound, the IC50 is 40 nM in series [2] (setting [4]) and 3340 nM in series [3] (setting [5]). For the same compound, the “HepG2 cells mean TOX50” value with HepG2 cells (HepG2 cells) came to 5.43 µM.
